The values that follow come from patent US8524744B2, “Arylamine ketones, their preparation methods, the pharmaceutical composition containing them and their use” (Institute of Mataria Medica, Chinese Academy of Medical …, priority 2004, dated 2013).

The first experiment relates to polymorphonuclear leucocytes from rat pleural cavity. Briefly: release of β-glucuronidase by polymorphonuclear leucocytes from rat pleural cavity in vitro (PAF as irritant). Conditions: Dose 1 × 10^−4 mol · L^−1; Irritant 2 × 10^−7 mol · L^−1. It counts as cell-based. The protocol: 1% carrageenan was injected into the right pleural cavity of Wistar rat to induce polymorphonuclear leucocytes. The cells was suspended in Dulbecoo's buffer at the concentration of 2.5×10^6 cells·ml^1. The fluid containing the compound or solvent and 250 μl of cells suspension were added in test tube and incubated in 37° C. waterbath for 15 min. Then 2.5 μl of cytochalasin B (1×10^−3 mol·L^−1) was added and the reaction was continued for 5 min. Then 2.5 μl of PAF (1×10^−4 mol·L^−1) was added and for another 5 min. The test tubes were put into ice bath to stop the reaction. The supernatant was isolated and used as the β-glucuronidase release fluid. 25 μl of the enzyme fluid, 25 μl of phenolphthalein-glucuronic acid (2.5 mmol·L^−1) and 100 μl of acetic acid buffer (0.1 mol·L^−1) were added into each well of 96-well plate which was placed into incubater and kept at 37° C.3 for 18 hr. 150 μl of NaOH (0.3 mol·L^−1) was added in each well to cease the reaction and the optical density was read at 550 nm.
Consider `CCOC(=O)N1CCN(CCC(=O)C=Cc2ccc3c(c2)OCO3)CC1.Cl` [Compound 32, 5-[(N4-Ethoxycarbonyl)piperazyl]-1-(3,4-methylenedioxyphenyl)-1-penten-3-one hydrochloride], for which the “Inhibition (%) of β-glucuronidase release” value (shortened to “Inhibition (%)”) is on record as 46.1%.

In the case of `Cl.O=C(C=Cc1ccc2c(c1)OCO2)CCN1CCN(Cc2ccccc2)CC1` [Compound 51, 5-[(N4-Benzyl)piperazyl]-1-(3,4-methylenedioxyphenyl)-1-penten-3-one hydrochloride], the “Inhibition (%)” value turned out to be 55.1%.

On to `CCOC(=O)N1CCN(CCC(=O)C=Cc2cc(OC)c(OC)c(OC)c2)CC1.Cl` [Compound 28, 5-[(N4-Ethoxycarbonyl)piperazyl]-1-(3,4,5-trimethoxy)phenyl-1-penten-3-one hydrochloride], for which the “Inhibition (%)” value is given as 21.8%.

In the case of `CN1CCN(CCC(=O)C=Cc2ccc3c(c2)OCO3)CC1.Cl` [Compound 52, 5-[(N4-Methyl)piperazyl]-1-(3,4-methylenedioxyphenyl)-1-penten-3-one hydrochloride], the “Inhibition (%)” value was 31.2%.

Still in this experiment, the particulars now being: Dose 1 × 10^−5 mol · L^−1; Irritant 1 × 10^−6 mol · L^−1.
On to `CCOC(=O)C1CCCN(CCC(=O)C=Cc2ccc(Cl)cc2)C1.Cl` (centres unmarked) [Compound 13, 5-[(3-Ethoxycarbonyl)piperidyl]-1-(4-chloro)phenyl-1-penten-3-one hydrochloride], for which the “Inhibition (%)” value is on record as 20.56%.

As for `CCCOc1ccc(C=CC(=O)CCN2CCC(Cc3ccccc3)CC2)cc1.Cl` [Compound 22b, 5-[(4-Benzyl)piperidyl]-1-(4-propoxyphenyl)-1-penten-3-one hydrochloride], the “Inhibition (%)” value came out at 41.79%.

`CC(CN1CCN(Cc2ccc3c(c2)OCO3)CC1)C(=O)C=Cc1ccc(Cl)cc1.Cl` (centres unmarked) [Compound 53, 5-[N4-(3,4-Methylenedioxy(benzyl)piperazyl)]-1-(4-chlorophenyl)-1-penten-4-methyl-3-one hydrochloride]: the “Inhibition (%)” value turned out to be 37.82%.

Regarding `Cl.O=C(C=Cc1ccc(Cl)cc1Cl)CCN1CCC(Cc2ccccc2)CC1` [Compound 23, 5-[(4-Benzyl)piperidyl]-1-(2,4-dichlorophenyl)-1-penten-3-one hydrochloride], the “Inhibition (%)” value is 32.27%.

Take `CCOC(=O)C1CCN(CCC(=O)C=Cc2ccc(OCC)c(OC)c2)CC1.Cl` [Compound 5, 5-[(4-Ethoxycarbonyl)piperidyl]-1-(3-methoxy-4-ethoxyphenyl)-1-penten-3-one hydrochloride]: the “Inhibition (%)” value came out at 45.34%.

As to “5-[(4-Ethoxycarbonyl)piperidyl]-1-(3,4-dimethoxyphenyl)-1-penten-3-one hydrochloride [Compound 4]”, the “Inhibition (%)” value was 28.05%.

For `CCOC(=O)C1CCN(CCC(=O)C=Cc2cc(OC)c(OC)c(OC)c2)CC1.Cl` [Compound 6, 5-[(4-Ethoxycarbonyl)piperidyl]-1-(3,4,5-trimethoxyphenyl)-1-penten-3-one hydrochloride], the “Inhibition (%)” value was found to be 39.53%.

`CCCCOc1ccc(C=CC(=O)CCN2CCC(Cc3ccccc3)CC2)cc1.Cl` [Compound 22, 5-[(4-Benzyl)piperidyl]-1-(4-butoxyphenyl)-1-penten-3-one hydrochloride]: the “Inhibition (%)” value is listed as 69.00%.

As for `CCOC(=O)N1CCN(CCC(=O)C=Cc2ccc(Br)cc2)CC1.Cl` [Compound 30, 5-[(N4-Ethoxycarbonyl)piperazyl]-1-(4-bromophenyl)-1-penten-3-one hydrochloride], the “Inhibition (%)” value is 23.54%.

Turning to “5-[(N4-Ethoxycarbonyl)piperazyl]-1-(4-trifluoromethylphenyl)-1-penten-3-one hydrochloride [Compound 29]”, the “Inhibition (%)” value was 22.22%.

Consider `CCOC(=O)C1CCN(CCC(=O)C=Cc2ccc(Cl)cc2Cl)CC1.Cl` [Compound 10, 5-[(4-Ethoxycarbonyl)piperidyl]-1-(2,4-dichlorophenyl)-1-penten-3-one hydrochloride], for which the “Inhibition (%)” value is 51.07%.

For the compound `COc1ccc(C=CC(=O)CCN2CCN(Cc3ccccc3)CC2)cc1.Cl` [Compound 49, 5-[(N4-Benzyl)piperazyl]-1-(4-methoxyphenyl)-1-penten-3-one hydrochloride], the “Inhibition (%)” value amounted to 43.19%.

With `Cl.O=C(C=Cc1ccc(F)cc1)CCN1CCC(Cc2ccccc2)CC1` [Compound 17, 5-[(4-Benzyl)piperidyl]-1-(4-fluorophenyl)-1-penten-3-one hydrochloride], the “Inhibition (%)” value was 37.64%.

As to `COc1ccc(C=CC(=O)CCN2CC(C)OC(C)C2)cc1.Cl` (centres unmarked) [Compound 39c, 5-(2,6-Dimethylmorpholinyl)-1-(4-methoxyphenyl)-1-penten-3-one hydrochloride], the “Inhibition (%)” value is recorded as 28.66%.

Take “5-[(N4-Benzyl)piperazyl]-1-(3,4-dimethoxyphenyl)-1-penten-3-one hydrochloride [Compound 48]”: the “Inhibition (%)” value stood at 25.87%.

Consider `CC1CN(CCC(=O)C=Cc2ccc(Br)cc2)CC(C)O1.Cl` (centres unmarked) [Compound 39b, 5-(2,6-Dimethylmorpholinyl)-1-(4-bromophenyl)-1-penten-3-one hydrochloride], for which the “Inhibition (%)” value worked out at 40.48%.

As to `CCOC(=O)N1CCN(CCC(=O)C=Cc2ccc(OC)cc2)CC1.Cl` [Compound 34d, 5-[(N4-Ethoxycarbonyl)piperazyl]-1-(4-methoxyphenyl)-1-penten-3-one hydrochloride], the “Inhibition (%)” value is 62.64%.

On to “5-[N4-(3,4-Methylenedioxy(benzyl)piperazyl)]-1-(3,4,5-trimethoxy-phenyl)-1-penten-3-one hydrochloride [Compound 54]”, for which the “Inhibition (%)” value came out at 65.88%.

With `CCOC(=O)C1CCCN(CCC(=O)C=Cc2ccc(OC)c(O)c2)C1.Cl` (centres unmarked) [Compound 14, 5-[(3-Ethoxycarbonyl)piperidyl]-1-(3-hydroxy-4-methoxyphenyl)-1-penten-3-one hydrochloride], the “Inhibition (%)” value is on record as 36.65%.

Take `COc1ccccc1N1CCN(CCC(=O)C=Cc2ccc(Cl)cc2)CC1.Cl` [Compound 58]: the “Inhibition (%)” value is reported as 21.31%.

Take `CCOc1cc(C=CC(=O)CCN2CCN(Cc3ccc4c(c3)OCO4)CC2)ccc1OC.Cl` [Compound 55, 5-[N4-(3,4-Methylenedioxy(benzyl)piperazyl)]-1-(3-ethoxy-4-methoxy-phenyl)-1-penten-3-one hydrochloride]: the “Inhibition (%)” value was 27.24%.

Staying with this experiment, now noted: Dose 1 × 10^−5 mol · L^−1; Irritant 1 × 10^−7 mol · L^−1.
As for `CCOC(=O)C1CCCN(CCC(=O)C=Cc2ccc(OC)c(OCC)c2)C1.Cl` (centres unmarked) [Compound 12, 5-[(3-Ethoxycarbonyl)piperidyl]-1-(3-ethoxy-4-methoxyphenyl)-1-penten-3-one hydrochloride], the “Inhibition (%)” value was found to be 181.48%.

For the compound `CCOC(=O)C1CCCN(CCC(=O)C=Cc2ccc3c(c2)OCO3)C1.Cl` (centres unmarked) [Compound 15, 5-[(3-Ethoxycarbonyl)piperidyl]-1-(3,4-methylenedioxyphenyl)-1-penten-3-one hydrochloride], the “Inhibition (%)” value came out at 141.17%.

For the compound `CCOC(=O)N1CCN(CCC(=O)C=Cc2ccc(O)cc2)CC1.Cl` [Compound 24, 5-[(N4-Ethoxycarbonyl)piperazyl]-1-(4-hydroxyphenyl)-1-penten-3-one hydrochloride], the “Inhibition (%)” value is 120.85%.

With `CCOC(=O)C1CCN(CCC(=O)C=Cc2ccc(O)c(OC)c2)CC1.Cl` [Compound 8, 5-[(4-Ethoxycarbonyl)piperidyl]-1-(3-methoxy-4-hydroxyphenyl)-1-penten-3-one hydrochloride], the “Inhibition (%)” value worked out at 158.42%.

The experiment is the same for the next values; noted with them: Dose 1 × 10^−5 mol · L^−1; Irritant 2 × 10^−7 mol · L^−1.
For the compound `Cl.O=C(C=Cc1ccc(C(F)(F)F)cc1)CCN1CCN(Cc2ccccc2)CC1` [Compound 44b, 5-[(N4-Benzyl)piperazyl]-1-(4-trifluoromethylphenyl)-1-penten-3-one hydrochloride], the “Inhibition (%)” value is on record as 57.93%.

On to `Cc1ccc(C=CC(=O)CCN2CCC(Cc3ccccc3)CC2)cc1.Cl` [Compound 19, 5-[(4-benzyl)piperidyl]-1-(4-methylphenyl)-1-penten-3-one hydrochloride], for which the “Inhibition (%)” value is 79.01%.

Regarding `Cl.O=C(C=Cc1ccc(F)cc1)CCN1CCN(Cc2ccccc2)CC1` [Compound 44a, 5-[(N4-Benzyl)piperazyl]-1-(4-fluorophenyl)-1-penten-3-one hydrochloride], the “Inhibition (%)” value is recorded as 52.46%.

Staying with this experiment, now noted: Dose 1 × 10^−5 mol · L^−1; Irritant 5 × 10^−7 mol · L^−1.
As for `CCOC(=O)C1CCN(CCC(=O)C=Cc2ccc(O)cc2)CC1.Cl` [Compound 1, 5-[(4-Ethoxycarbonyl)piperidyl]-1-(4-hydroxyphenyl)-1-penten-3-one hydrochloride], the “Inhibition (%)” value is reported as 97.87%.

The experiment is the same for the next values; noted with them: Dose 2 × 10^−6 mol · L^−1; Irritant 1 × 10^−7 mol · L^−1.
For `CCOC(=O)N1CCN(CCC(=O)C=Cc2ccc(C#N)cc2)CC1.Cl` [Compound 34a, 5-[(N4-Ethoxycarbonyl)piperazyl]-1-(4-cyanophenyl)-1-penten-3-one hydrochloride], the “Inhibition (%)” value is reported as 121.34%.

Turning to `CCOC(=O)C1CCN(CCC(=O)C=Cc2ccc(C#N)cc2)CC1.Cl` [Compound 2, 5-[(4-Ethoxycarbonyl)piperidyl]-1-(4-cyanophenyl)-1-penten-3-one hydrochloride], the “Inhibition (%)” value came to 126.36%.
